Laboratory results: patent US7060451B2, “Methods for screening GABA-modulatory compounds for specified pharmacological activities” (Neurogen Corporation, priority 1999, dated 2006)
Marks after values point to notes of the source that are not given here.

How the values were obtained:
[1] = tested on: rats; experiment: step-down passive avoidance; type: in vivo; conditions: rat, IV, cognitive enhancement
Text: In step-down passive avoidance a rat is placed on a platform located in the center of an electrified grid floor that is contained within a large (45 cm×45 cm×50 cm) white translucent Plexiglas® enclosure. The natural inclination of the rat is to step off the platform and investigate its surroundings. […] Each time the animal steps off the platform it receives a mild foot shock of 2 mAmps×6 sec. Following each shock the animal is removed from the box, placed in its cage for a one minute inter-trial interval, and then returned to the platform. The latency to step down on each trial, the number of trials taken to reach criterion during training and the retention latency are collected.
Testing is conducted approximately 24 hrs. after training. Drug-free animals are placed on the platform in the box in which they will have been trained and the latency to step down onto the grid floor is recorded for one trial as a measure of memory retention.

[2] = tested on: bicuculline-induced seizures in rats; experiment: bicuculline seizure threshold test; type: in vivo; conditions: rat, compound infused 5 minutes before bicuculline
Text: This test provides a measure of whether the test compound is proconvulsant by measuring whether the test compound produces any change in the dose of the seizure inducing drug, bicuculline, needed to elicit seizures in rats. Test compounds must show <25% decrease in seizure threshold or p>0.05 significance to be considered as drug candidates.
Adult male Sprague-Dawley rats (175-300 g) are weighed and placed in a rat restrainer. A Teflon® indwelling catheter is placed in one of the lateral tail veins and held in place with surgical tape. The catheter and a 3.0 cc syringe are connected by a length of PE-100 tubing fitted with Hamilton male and female adapter. Patency of catheter placement is tested by backflow of venous blood and ready infusion of less than 2 ml of saline solution. Animals are placed in a clear acrylic cage for behavioral observation.
The test compound is prepared in either 25% or 50% polyethylene glycol 400 (PEG) vehicle. A bicuculline (BIC) stock solution of 1.0 mg/ml BIC in 25% PEG/75% 1N HCl is also prepared. […]
Test compound is infused 5 minutes prior to the start of bicuculline infusion. […] The time elapsed from the start of bicuculline infusion to first myoclonic jerk (first head/neck twitch), the initiation of full myoclonus (writhing), and final forelimb extension is all recorded using a digital stopwatch. […]

[3] = molecular target: α1β2γ2 GABAA subtype receptor (Homo sapiens, UniProt P14867+P18507); experiment: oocyte electrophysiology, two electrode voltage-clamp, potentiation of GABA current; type: cell-based; conditions: Xenopus oocytes, human subunits, GABA EC10; for Emax: read-out: oocyte electrophysiology maximum potentiation (%) α1β2γ2
Chain of α1β2γ2 GABAA subtype receptor (P14867 28-456): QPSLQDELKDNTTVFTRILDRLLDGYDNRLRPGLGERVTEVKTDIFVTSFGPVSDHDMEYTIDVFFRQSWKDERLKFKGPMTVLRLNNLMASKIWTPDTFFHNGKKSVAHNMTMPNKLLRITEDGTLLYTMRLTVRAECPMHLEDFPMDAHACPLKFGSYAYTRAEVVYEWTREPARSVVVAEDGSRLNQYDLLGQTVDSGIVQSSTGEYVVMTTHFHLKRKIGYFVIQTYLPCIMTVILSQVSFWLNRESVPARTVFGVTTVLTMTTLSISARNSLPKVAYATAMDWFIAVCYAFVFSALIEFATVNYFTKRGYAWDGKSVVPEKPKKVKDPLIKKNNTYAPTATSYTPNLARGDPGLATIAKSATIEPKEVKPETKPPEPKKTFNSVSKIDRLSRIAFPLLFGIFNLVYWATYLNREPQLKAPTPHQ
Chain of α1β2γ2 GABAA subtype receptor (P47870 25-512 partner limits assumed): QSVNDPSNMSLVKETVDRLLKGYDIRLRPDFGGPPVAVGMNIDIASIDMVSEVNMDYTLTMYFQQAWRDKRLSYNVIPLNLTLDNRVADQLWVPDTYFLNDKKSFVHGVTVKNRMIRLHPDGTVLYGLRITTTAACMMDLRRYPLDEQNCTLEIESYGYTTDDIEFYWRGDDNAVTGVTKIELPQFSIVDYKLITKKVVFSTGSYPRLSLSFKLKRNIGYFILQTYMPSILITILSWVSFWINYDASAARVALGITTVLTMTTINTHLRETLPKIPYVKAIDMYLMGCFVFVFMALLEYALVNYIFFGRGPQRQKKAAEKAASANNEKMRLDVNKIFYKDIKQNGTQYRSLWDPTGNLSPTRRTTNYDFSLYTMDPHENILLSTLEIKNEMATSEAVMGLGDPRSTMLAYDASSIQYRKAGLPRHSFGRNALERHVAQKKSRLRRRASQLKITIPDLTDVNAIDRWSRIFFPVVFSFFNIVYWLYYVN
Chain of α1β2γ2 GABAA subtype receptor (P18507 40-475): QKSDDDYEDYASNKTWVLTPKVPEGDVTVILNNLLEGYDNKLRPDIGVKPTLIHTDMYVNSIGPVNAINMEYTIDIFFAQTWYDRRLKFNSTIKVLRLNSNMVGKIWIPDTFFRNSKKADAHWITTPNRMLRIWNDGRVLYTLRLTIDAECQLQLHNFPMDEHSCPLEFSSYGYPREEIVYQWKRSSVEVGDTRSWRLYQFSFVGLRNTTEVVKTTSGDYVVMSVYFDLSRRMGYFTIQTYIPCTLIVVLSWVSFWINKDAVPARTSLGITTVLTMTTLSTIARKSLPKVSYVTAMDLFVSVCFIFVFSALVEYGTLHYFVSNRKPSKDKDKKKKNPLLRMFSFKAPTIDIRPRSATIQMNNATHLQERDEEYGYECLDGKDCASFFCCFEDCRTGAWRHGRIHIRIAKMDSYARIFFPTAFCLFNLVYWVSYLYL
Description: (§1) Assays are carried out as described previously in White and Gurley, 1995 and White, et al., 1995. Xenopus laevis oocytes are enzymatically isolated and injected with non-polyadenylated cRNA for human derived α, β and γ GABAA subunits, respectively. In more preferred embodiments cRNA for the α1β2γ2, α2β3γ2, α3β3γ2, and α5β3γ2 subunit combinations are injected. Only one of these subunit combinations is injected per cell. For each subunit combination, sufficient message is injected to result in current amplitudes of >10 nA when 1 μM GABA is applied. Electrophysiological recordings are carried out using the two electrode voltage-clamp technique at a membrane holding potential of −70 mV.
(§2) Compounds are evaluated against a GABA concentration that evokes <10% (EC10) of the maximal evocable GABA current. Each oocyte is exposed to increasing concentrations of compound in order to evaluate a concentration/effect relationship.
(§3) Specificity of a compound for the Ro15-1788 site is determined following completion of the concentration/effect curve. After washing the oocyte sufficiently to remove previously applied compound, the oocyte is exposed to GABA and 1 μM Ro15-1788, followed by exposure to GABA, 1 μM Ro15-1788, and compound. Percent change due to addition of compound is calculated as described above. Any percent change observed in the presence of Ro15-1788 is subtracted from the percent changes in current amplitude observed in the absence of 1 μM Ro15-1788. These net values are used for the calculation of average activity and EC50 values.
(§4) To evaluate average activity and EC50 values, the concentration/effect data are averaged across cells and fit to the logistic equation. Average values are reported as mean ±standard error.

[4] = molecular target: α3β3γ2 GABAA subtype receptor (Homo sapiens, UniProt P18507+P34903); experiment: as above; type: cell-based; conditions: Xenopus oocytes, human subunits, GABA EC10
Chain of α3β3γ2 GABAA subtype receptor (P34903 29-492): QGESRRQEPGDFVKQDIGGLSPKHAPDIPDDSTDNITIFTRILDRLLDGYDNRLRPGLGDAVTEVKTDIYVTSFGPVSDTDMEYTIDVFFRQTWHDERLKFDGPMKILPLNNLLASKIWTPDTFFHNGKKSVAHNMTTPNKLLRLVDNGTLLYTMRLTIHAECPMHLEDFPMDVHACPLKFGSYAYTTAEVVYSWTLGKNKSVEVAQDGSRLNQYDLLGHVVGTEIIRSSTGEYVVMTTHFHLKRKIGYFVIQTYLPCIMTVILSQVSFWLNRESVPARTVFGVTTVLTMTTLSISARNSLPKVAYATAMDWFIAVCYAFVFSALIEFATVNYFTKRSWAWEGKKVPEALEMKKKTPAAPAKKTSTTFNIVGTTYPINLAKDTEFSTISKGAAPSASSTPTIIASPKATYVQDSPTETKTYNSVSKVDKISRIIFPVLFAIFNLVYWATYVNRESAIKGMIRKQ
Chain of α3β3γ2 GABAA subtype receptor (P28472 26-473 partner): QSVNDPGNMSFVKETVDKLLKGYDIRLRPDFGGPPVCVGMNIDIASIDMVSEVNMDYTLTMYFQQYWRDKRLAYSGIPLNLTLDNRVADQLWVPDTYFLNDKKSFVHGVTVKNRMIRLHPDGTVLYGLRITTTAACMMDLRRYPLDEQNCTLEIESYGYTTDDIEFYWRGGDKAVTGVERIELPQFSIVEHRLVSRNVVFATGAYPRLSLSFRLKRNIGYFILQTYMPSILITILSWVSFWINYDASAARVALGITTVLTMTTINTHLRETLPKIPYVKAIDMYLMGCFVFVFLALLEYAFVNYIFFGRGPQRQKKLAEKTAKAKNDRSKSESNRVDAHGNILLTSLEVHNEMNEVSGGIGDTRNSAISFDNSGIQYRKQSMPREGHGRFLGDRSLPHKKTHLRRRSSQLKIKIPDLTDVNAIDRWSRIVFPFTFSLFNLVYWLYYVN
Chain of α3β3γ2 GABAA subtype receptor (P18507 40-475): as the sequence (P18507 40-475) above
Description: as §1, §2, §3, §4

[5] = molecular target: α2β3γ2 GABAA subtype receptor (Homo sapiens, UniProt P18507+P47869); experiment: as above; type: cell-based; conditions: Xenopus oocytes, human subunits, GABA EC10
Chain of α2β3γ2 GABAA subtype receptor (P47869 29-451): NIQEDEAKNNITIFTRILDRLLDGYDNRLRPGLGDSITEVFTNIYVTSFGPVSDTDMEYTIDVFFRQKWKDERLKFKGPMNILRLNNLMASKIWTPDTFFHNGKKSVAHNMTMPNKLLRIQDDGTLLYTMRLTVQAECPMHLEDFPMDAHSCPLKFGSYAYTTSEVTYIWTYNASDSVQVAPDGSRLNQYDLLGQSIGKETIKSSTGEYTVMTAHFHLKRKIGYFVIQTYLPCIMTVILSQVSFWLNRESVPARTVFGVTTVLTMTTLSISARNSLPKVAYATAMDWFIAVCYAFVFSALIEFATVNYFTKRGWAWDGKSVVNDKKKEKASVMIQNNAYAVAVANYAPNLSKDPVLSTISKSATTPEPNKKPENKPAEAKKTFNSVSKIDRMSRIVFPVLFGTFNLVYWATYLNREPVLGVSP
Chain of α2β3γ2 GABAA subtype receptor (P28472 26-473 partner): as the sequence (P28472 26-473 partner) above
Chain of α2β3γ2 GABAA subtype receptor (P18507 40-475): as the sequence (P18507 40-475) above
Description: as §1, §2, §3, §4

[6] = molecular target: α5β3γ2 GABAA subtype receptor (Homo sapiens, UniProt P18507+P31644); experiment: as above; type: cell-based; conditions: Xenopus oocytes, human subunits, GABA EC10; for Emax: read-out: oocyte electrophysiology maximum potentiation (%) α5β3γ2
Chain of α5β3γ2 GABAA subtype receptor (P31644 32-462): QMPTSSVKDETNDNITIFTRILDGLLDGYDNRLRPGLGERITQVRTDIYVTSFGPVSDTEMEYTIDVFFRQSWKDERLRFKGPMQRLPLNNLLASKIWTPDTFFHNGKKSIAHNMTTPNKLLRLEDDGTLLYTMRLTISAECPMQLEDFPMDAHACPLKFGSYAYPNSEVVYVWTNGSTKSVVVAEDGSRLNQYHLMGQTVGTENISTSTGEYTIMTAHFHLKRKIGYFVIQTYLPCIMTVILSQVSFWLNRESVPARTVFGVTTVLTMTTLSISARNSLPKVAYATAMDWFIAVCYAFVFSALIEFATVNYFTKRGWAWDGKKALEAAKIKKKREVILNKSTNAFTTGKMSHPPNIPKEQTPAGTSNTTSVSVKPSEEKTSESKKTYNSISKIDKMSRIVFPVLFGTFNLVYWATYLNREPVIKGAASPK
Chain of α5β3γ2 GABAA subtype receptor (P28472 26-473 partner): as the sequence (P28472 26-473 partner) above
Chain of α5β3γ2 GABAA subtype receptor (P18507 40-475): as the sequence (P18507 40-475) above
Description: as §1, §2, §3, §4

[7] = tested on: rats; experiment: elevated plus maze; type: in vivo; conditions: rat, IV, statistically significant response (anxiolytic effect)
Description: The elevated plus maze model capitalizes on rats' innate fear of open, elevated places. The test apparatus is an elevated plus maze consisting of two open arms and two closed arms. A rat will naturally chose to spend more time on the closed arms of the maze than on the open arms but that if an efficacious anxiolytic compound is administered to the rat prior to the test the amount it of time the rat spends in the open arms is increased.
Test compound is administered IV in a 50% PEG (polyethylene glycol) vehicle 5 minutes prior to the test session. A range of compound doses is typically used and 8-10 rats are tested at each dose. The rat is placed in the center of the maze facing one of the open arms. The animal's locomotion is tracked over a five minute test session using photocells interfaced to a computer. The computer measures the number of entries into each arm and the time spent on each arm. An anxiolytic effect in the elevated plus maze model is defined by an increase in the percentage of time spent on the open arms in compound versus vehicle treated animals.

[8] = tested on: rats; experiment: Porsolt forced swim test; type: in vivo; conditions: rat, administered IV, statistically significant response
Text: The effects measured in this model have been correlated to antidepressant efficacy for drugs. The paradigm of this model is that an effective antidepressant compound will cause a rat to make greater attempts to escape a water-filled cylinder than a rat given vehicle only.
Animals used in this study were non-naive male Sprague Dawley Rats (SASCO, St. Louis) weighing between 280-350 grams. The test apparatus consists of 6 clear Plexiglas cylinders 40 cm high×19 cm wide. Cylinders are filled to 18 cm with 25° C. water. Each rat is placed in a cylinder for a 15 minute training session. Following either subchronic or acute dosing of either vehicle (0.5% methylcellulose) of compound, animals are brought back 24 hours later for a 5 minute test session. These test session is videotaped for later scoring.
Subchronic dosing consists of administering drug three times in the 24-hour period between training and testing. The drug is administered 24 hrs., 5 hrs., and 1 hr. prior to the test session. Acute dosing consists of administering the drug once, 1 hour prior to the test session. Scoring is done using a time-sampling computer program written in Visual Basic and run in DOS. […] These sampling score are then converted into percentages of the test session.

[9] = tested on: rats; experiment: spontaneous locomotor activity; type: in vivo; conditions: rat, in vivo, iv, 15 min
Description: Spontaneous locomotor activity can be measured to determine sedative effects of compounds. Locomotor activity is measured in eight computerized Digiscan-16 Animal Activity Monitors (Omnitech Electronics, Columbus, Ohio) equipped with 48 infrared photocell emitters and detectors. Each box is constructed of Plexiglas sides and floor. Horizontal activity is detected by a set of horizontal sensors on the front to back walls and a second group of sensors on the side to side walls located 5 cm above the cage floor. Vertical activity is detected by a third set of sensors on the side to side walls located 13.5 cm above the cage floor. The rats are tested in the presence of white noise (62 dB) and red St light (60 watt).
Test compound is administered IV in a 50% PEG vehicle 5 minutes prior to the test session. A range of compound doses is typically used and 6 to 8 rats are tested at each dose. The animal's movement time, vertical activity, and total distance traveled are tracked over a 15 minute test session. A sedative, or hypnotic, effect in the spontaneous locomotor activity model is defined by a decrease in any two of these three measures relative to animals given vehicle alone.

[10] = tested on: rats; experiment: spatial water maze; type: in vivo; conditions: rat
[11] = molecular target: GABAA receptors (benzodiazepine site, Ro15-1788 binding sites), rat cortex; experiment: Ro15-1788 competition binding assay, rat cortex membranes; conditions: displacement of 3H Ro15-1788, read-out: Ro15-1788 binding, K1
Description: Rat cortex membranes are prepared by homogenizing one or two previously frozen rat cortexes in 30 ml of 25 mM Tris Buffer, pH 7.4. The homogenate is centrifuged for 10 minutes at 500× g. The supernatant is then transferred to a clean centrifuge tube and the pellet discarded. The supernatant is spun for 20 minutes at 48,000× g. The supernatant from this spin is discarded and the pellet is resuspended in 30 ml of 25 mM Tris Buffer, pH 7.4 and centrifuged for an additional 10 minutes at 48,000× g. The supernatant from the final spin is discarded and the membrane pellet is resuspended in 100 mL Tris buffer per gram of cortex used.
The cortex membrane preparation is used to perform either percent inhibition or competition binding assays. In order to determine percent inhibition 300 μl of resuspended membranes are mixed with 200 μl ^3H labeled Ro15-1788 (final concentration 2.5 nM) and incubated for 1 hour on ice in the presence of 2 μl test compound in DMSO (final concentration 4 μM). Membranes are harvested onto untreated filtermats. The filtermats are dried and the ^3H Ro15-1788 signal is counted in a scintillation counter. Nonspecific binding is determined by displacement of ^3H Ro15-1788 with 10 μM Diazepam (RBI) or any other compound known to bind tightly at the benzodiazepine site.
K1 values are calculated according to the Cheng-Prussof equation.

Compound	cognitive model (step-down passive avoidance), minimal efficacious dose [1] [mg/kg]	bicuculline seizure threshold, mean percent decrease in seizure threshold over the dose range studied [2] [%]	oocyte electrophysiology maximum potentiation (%) α1β2γ2 [3] [%]	oocyte electrophysiology maximum potentiation (%) α3β3γ2 [4] [%]	oocyte electrophysiology maximum potentiation (%) α2β3γ2 [5] [%]	oocyte electrophysiology maximum potentiation (%) α5β3γ2 [6] [%]	elevated plus maze, minimal efficacious dose [7] [mg/kg]	Porsolt swim test, minimal efficacious dose [8] [mg/kg]	EC50 [6] [nM]	Emax [6] [%]	spontaneous locomotor activity, minimal efficacious dose [9] [mg/kg]	cognitive model (spatial water maze), minimal efficacious dose ([10]; PO)	Emax [3] [%]	Ki [11] [nM]	cognitive model (spatial water maze), minimal efficacious dose ([10]; IV)
O=C1C2C=Nc3ccccc3C2=NN1c1ccccc1 (centres unmarked) [CGS 8216, reference compound]	0.06	50	−26	−8	−10	−39	–	–	–	–	–	–	–	–	–
CCOc1ccc(-n2c(=O)c3c[nH]c4ccccc4n-3c2=O)cc1 [compound 1]	–	–	12	–	–	15	0.03	20	88	-11	–	–	–	–	–
CCOc1ccc(NC(=O)c2c[nH]c3c2C(=O)CCC3)cc1 [compound 3]	–	–	–	–	–	38	0.125	20	–	-11	4	–	–	–	–
COc1ccc(F)c(-c2ncc3[nH]c4c(c3n2)CCCC4)c1 [compound 11]	–	–	–	36	21	–	–	–	–	-22	–	PO = 10.0^†† mg/kg	-11	33	–
O=C(Nc1ccccc1)c1c[nH]c2c1C(=O)CCCC2 [compound 13]	–	–	–	14	9	–	–	–	–	-20	–	–	-17	6.3	0.125^†† mg/kg
